Read-outs that look alike come from different tables or passages of the source.
What was measured:
adult S. mansoni couples = experiment: In vitro screening of OGHL compounds and analogues against adult S. mansoni couples (Giessen); assay type: cell-based, Schistosoma mansoni; conditions: 10 µM; for Effect on egg production: after 24 h, compared to control
Method: For in vitro culture in Giessen, M199 medium (Gibco) containing 10% newborn calf serum, 1% HEPES (1 M) and 1% ABAM solution (10,000 units penicillin, 10 mg streptomycin and 25 µg amphotericin B per millilitre) were used. After perfusion, the worms were transferred to petri dishes with 5 mL medium using featherweight tweezers. The worms were cultured at 37 °C and 5% CO2. After 24 h, stably paired couples were selected for inhibitor assays.
The initial screening by the Giessen team covered the 250 compounds of the OGHL, and in a subsequent, second screening approach, an additional 58 analogues of the compounds OGHL22 and OGHL121, which were tested on S. mansoni couples in vitro. For each compound, three replicates of five couples randomised from different hamsters were used. The couples were transferred to 6-well plates (or 12-well plates) containing 2 mL pre-heated medium. For each compound, the stock solution was pre-diluted in pre-heated medium, and then added to each replicate, resulting in a final volume of 2.5 mL and a final concentration of 10 µM. A negative control was included for all assays. For this, three replicates were prepared with DMSO (0.1%) as volume substitution of the stock solution. The worms were cultured at 37 °C and 5% CO2. As physiological parameters, worm motility, pairing stability, and attachment were assessed after 4 h and 24 h. After 24 h, egg production was also estimated (see below).
For the first screening approach, the Giessen team evaluated pairing stability by counting couples at the time of scoring. Attachment was determined by counting the number of worms (couples or single worms) that were attached to any surface. Motility was scored on a scale of 0–4. The average activity of the worms in the negative control was used as a reference value for normal activity: 4 indicated increased activity, 3 normal activity, 2 reduced activity, 1 little activity with occasional head and tail movements and/or gut movement, 0 no activity for at least 20 s. The number of eggs was estimated after 24 h. Compared to the control, categories for egg production were defined as fewer eggs (score 0), similar numbers of egg (score 1) and more eggs (score 2). The corresponding percentages of the scores were determined based on three replicates. Score 0 corresponded to less than 50% eggs, score 1 to 50–200%, and score 2 to over 200% of the egg count compared to the negative control. The means of the scores were later normalized to the range 0–2 (0–200%).

Schistosoma mansoni = conditions: cited from earlier work
[1] = tested on: newly transformed schistosomula (NTS); experiment: In vitro screening against newly transformed schistosomula (Basel); assay type: cell-based, Schistosoma mansoni; conditions: 10 µM, 72 h incubation, Basel team
Method: At the Basel lab, infected B. glabrata snails were placed for 4 h under a light source to initiate the shedding of cercariae, which were collected, mechanically transformed into NTS, and kept in M199 medium supplemented with 5% fetal calf serum (FCS), 1% Mäsermix, and 1% penicillin/streptomycin (pen./strep.) 10,000 U/ml, at 37 °C and 5% CO2 [27]. To collect adult S. mansoni, mesenteric veins of infected hamsters were dissected on day 49 post-infection. The worms were placed in supplemented RPMI 1640 medium (containing 5% FCS, 1% pen., and 100 μg/ml strep.) and incubated at 37 °C with 5% CO2 until further use.
The Basel team performed the screening as follows: the stock solutions of each compound from the library (10 mM) were diluted with M199 medium (supplemented with 1% pen./strep., 1% Mäsermix, 5% FCS) and NTS solution (0.7 NTS/µL) in a transparent flat-bottom 96-well plate (Sarstedt, Switzerland), resulting in a final volume of 250 µL, 30–40 NTS, and a drug concentration of 10 µM. For adults, the drugs were diluted to 10 µM in 2 mL with RPMI 1640 medium (supplemented with 1% pen./strep. and 5% FCS) in a 24-well plate (Sarstedt, Switzerland), and three schistosome couples were added. […] For both life stages, DMSO served as a negative control (< 1% of the final volume). The plates were incubated at 37 °C and 5% CO2. […]

## COc1cc(C(=O)Nc2cn(Cc3ccc(Cl)c(Cl)c3)nn2)ccc1-n1cnc(C)c1 [OGHL00219]
Adult S. mansoni couples
  Effect on egg production: affected

## CCCCCCN(Cc1ccc(C#Cc2ccc(CCCC)cc2)cc1)c1ccc(O)c(C(=O)O)c1 [OGHL00126]
Adult S. mansoni couples
  Effect on egg production: affected

## COc1ccc(OCC(=O)O)cc1-c1cn2cc(C(=O)NCCc3c(OC)cc(Cl)cc3OC)sc2n1 [OGHL00248]
Adult S. mansoni couples
  Effect on egg production: affected

## COc1ccc(OCC(N)=O)cc1-c1cn2cc(C(=O)NCCc3c(OC)cccc3OC)sc2n1 [OGHL00241]
Adult S. mansoni couples
  Effect on egg production: affected

## O=C(C1CCCCC1)N1CC(=O)N2CCc3ccccc3C2C1 (centres unmarked) [PZQ, praziquantel]
Schistosoma mansoni; at 4 h
  EC50: 0.1 µg/mL
Schistosoma mansoni; at 72 h, ref 32, read-out: EC50
  EC50: 100 nM
Schistosoma mansoni; at 72 h, ref 33
  EC50: 0.05 µg/mL
Adult S. mansoni couples; within 24 h
  Motility score in the initial approach: about 0

## CCc1cc(C)c(C(=O)N=C(N)N)cc1S(C)(=O)=O [OGHL00053]
Adult S. mansoni couples
  Effect on egg production: affected

## COc1nc(/C=C/c2nc3n(n2)CCCC3c2ccccc2C(F)(F)F)ccc1-n1cnc(C)c1 (centres unmarked) [OGHL00208]
Adult S. mansoni couples
  Effect on egg production: affected

## CCCSc1cc(C)c(C(=O)N=C(N)N)cc1S(C)(=O)=O [OGHL00050]
Adult S. mansoni couples
  Effect on egg production: affected

## COc1ccc(CNc2nc(CCCCC(=O)O)nc3sc4c(c23)CCCC4)cc1Cl [OGHL00092]
Adult S. mansoni couples
  Effect on egg production: affected

## O=C(C1CCCCC1)N1CC(=O)N2CCc3ccccc3[C@H]2C1 [OGHL00245]
Adult S. mansoni couples
  Couples separated after 4 h: > 50%
  Couples separated after 24 h: separation of all couples

## O=C(O)c1ccc(-c2nc(NCc3ccc4c(c3)OCO4)c3cc(Cl)sc3n2)cc1 [OGHL00093]
Adult S. mansoni couples
  Effect on egg production: affected

## CC1(C)Oc2ccc(C#N)cc2[C@H](n2ccccc2=O)[C@H]1O [OGHL00027]
Adult S. mansoni couples
  Effect on egg production: affected

## COC(=O)c1cc(C(=O)N=C(N)N)c(C)cc1C [OGHL00094]
Adult S. mansoni couples
  Effect on egg production: affected

## COc1ccc(CNc2nc(CCCCC(=O)O)nc3sc4ccccc4c23)cc1Cl [OGHL00101]
Adult S. mansoni couples
  Effect on egg production: affected

## CCCCc1nc2ccn(Cc3ccccc3C(=O)O)c(=O)c2n1Cc1ccc(-c2ccccc2-c2nn[nH]n2)cc1 [OGHL00034]
Adult S. mansoni couples
  Effect on egg production: affected

## O=C(O)c1ccc(-c2nc(NCc3ccccc3)c3c4c(sc3n2)CCCC4)cc1 [OGHL00079]
Adult S. mansoni couples
  Effect on egg production: affected

## O=C(C1CCCCC1)N1CC(=O)N2CCc3ccccc3[C@@H]2C1 [OGHL00244, (R)-PZQ, reference compound]
[1]
  Activity against NTS: greater than 65%
Adult S. mansoni couples; adult couples, Giessen team
  Attachment after 4 h: strong effects on attachment capacity
  Pairing stability after 4 h: no effect on pairing stability
  Pairing stability after 24 h: no effect on pairing stability
Adult S. mansoni couples
  Effect on egg production: drastically reduced

## Cc1cc(C2CCC2)c(S(C)(=O)=O)cc1C(=O)N=C(N)N [OGHL00061]
Adult S. mansoni couples
  Effect on egg production: affected

Source: publication PMC11796224, “Merck Open Global Health Library in vitro screening against Schistosoma mansoni identified two new substances with antischistosomal activities for further development” (Parasites & Vectors, 2025)
